In patent US11466025B2, “Thienopyridine derivatives containing unsaturated aliphatic olefinic bond, preparation method and use thereof” (Tianjin Institute of Pharmaceutical Research Co., Ltd., priority 2017, dated 2022):
Read-outs that look alike come from different tables or passages of the source. Blank lines part the entries; values can stand above or below the compound they belong to.

Tests used:
[1] = tested on: platelet aggregation induced by ADP; test: Test of inhibitory effect of compounds on platelet aggregation in rats (ex vivo, ADP-induced, after intragastric administration); set-up: species or system SD rats; conditions: for ED50: Rattus norvegicus; for Inhibition rate (%): platelet aggregation, control = 100%; for Aggregation rate (%): 2 h after administration, ADP 20 uM
Protocol: Test of Inhibitory Effect of Compounds on Platelet Aggregation in Rats Healthy male SD rats were selected and randomly divided into solvent control group, positive drug control group and test compound group. Intragastric administration was carried out, with the administration volume being 10 ml/kg˜bw. […] The platelet count was adjusted to 5×10^8 cells/ml with PPP.

[2] = Stability of the compounds under high temperature, high humidity and light (influence factors, HPLC); type: physicochemical
Protocol: Study on the Stability of the Compounds:
The stability of the compound is investigated under the conditions of high temperature, high humidity and light. The testing conditions for high performance liquid chromatography (HPLC) are as follows:
Instrument: high performance liquid chromatography;
Column: Inertsil C8-3, 150 mm×4.6 mm, 5 μm;
Mobile phase A: acetonitrile; mobile phase B: 5 mM ammonium dihydrogen phosphate;
Detection wavelength: 220 nm;
Column temperature: 35° C.;
Sample chamber temperature: 25° C.;
Column: Agilent Poroshell 120 EC-C18, 100 mm×4.6 mm, 2.7 μm;
Column temperature: 30° C.;
Other conditions are the same as that in Method 1.
Samples relating to Compound I-2 were tested using Method 2 and other samples were tested using Method 1. The test results of the influence factors are shown in Table 14, and the test results of the light-avoidance stability test are shown in Table 15.

[3] = for Concentration of incubated compound in human plasma / Incubated compound in human plasma, %: 1 μM
Protocol: Plasma samples (double sample) containing 1 μM of the compounds of the present invention, clopidogrel hydrogen sulfate (LBGL), 2-oxo product (2-Oxo) were prepared from human blank plasma, and incubated at 37° C. 50 μL of the above incubated plasma samples were taken at different time points, and 100 μL of precipitant (acetonitrile:methanol=7:3) and 50 μL of internal standard were added. The mixture was vortexed for 1 min and centrifuged for 10 min. 100 μL of the supernatant was taken into an inner inserted tube, centrifuged for 5 min, and injected for LC-MS/MS analysis.
Preparation of blank control sample (PPT-0): 100 μL of frozen human blank plasma was taken, to which 195 μL of acetonitrile and 100 μL of internal standard were added, followed by 5 μL of the compound of the present invention, clopidogrel or 2-oxo product (20 μM). The mixture was vortexed for 1 min and centrifuged for 10 min. 100 μL of the supernatant was taken into an inner inserted tube, centrifuged for 5 min, and injected for LC-MS/MS analysis.

[4] = tested on: arteriovenous bypass thrombosis in rats; test: Test of effect of compounds on arteriovenous bypass thrombosis in rats; type: in vivo, SD rats; conditions: rats; for ED50: Rattus norvegicus, po, dry weight of thrombus from arteriovenous bypass, intragastric, read-out: ED50; for Inhibition rate (%): dry weight of thrombus
Protocol: Test of Effect of Compounds on Arteriovenous Bypass Thrombosis in Rats
Male SD rats were randomly divided into solvent control group, positive drug control group and test compound group. The solvent control group was administered a corresponding volume of the solvent. […] Rats were anesthetized with 4% chloral hydrate (0.32 g/kg), and fixed on the operating table at the supine position. The right common carotid artery and the left external jugular vein were separated, and was each inserted with a Teflon tube filled with normal saline solution containing heparin (50 U/mL), which were connected through another Teflon tube. A 6 cm long cotton thread was placed at the joints of the two tubes. After 2.5 h of administration, the arteriovenous loop was opened in each group and circulated for 15 min. The blood flow was interrupted, and the cotton thread wrapped with the thrombus was quickly removed and weighed. The weight of the cotton thread was subtracted to obtain the wet weight of the thrombus, and then it was baked in the oven to constant weight and weighed. The weight of the cotton thread was subtracted to obtain the dry weight of the thrombus.

[5] = tested on: bleeding time of amputated tail in rats; test: Test of hemorrhagic side effects: bleeding time of amputated tail in rats; type: in vivo, SD rats; conditions: intragastric, tail cut 1 h after administration, linear equation fitted
Protocol: Test of Hemorrhagic Side Effects:
1 h after administration, the rats were anesthetized by intraperitoneal injection of 20% urethane (1 g/kg), and the tail was cut off 5 mm from the tip of the tail, which was then placed in a test tube containing 5 ml normal saline at 37° C. The time from tail cut to cease of bleeding was recorded as the bleeding time. The increasing rate of bleeding time in each dose group was calculated, with the bleeding time of the rats in the control group being 100%.

[6] = inhibition of ADP-induced platelet aggregation, rats, oral administration, read-out: ED50
[7] = 5 days, High temperature 60° C.
[8] = 10 days, High temperature 60° C.
[9] = 30 days, High temperature 60° C.

SMILES: CC/C=C/C(=O)Oc1cc2c(s1)CCN([C@H](C(=O)OC)c1ccccc1Cl)C2 [Compound I-4, Methyl (S,E)-2-(2-chlorophenyl)-2-(2-(2-pentenoyloxy)-6,7-dihydrothieno[3,2-c]pyridin-5(4H)-yl)-acetate]
ED50 [1, 6]: 1.27 mg/kg
Inhibition rate (%) ([1]; rats, intragastric 0.5 mg/kg): 26.2%
Inhibition rate (%) ([1]; rats, intragastric 1 mg/kg): 38.2%
Inhibition rate (%) ([1]; rats, intragastric 2 mg/kg): 62.9%
Inhibition rate (%) ([1]; rats, intragastric 4 mg/kg): 78.4%
Inhibition rate (%) ([1]; rats, intragastric 8 mg/kg): 100.0%
Aggregation rate (%) ([1]; rats, intragastric 0.5 mg/kg): 44.3 ± 25.8%
Aggregation rate (%) ([1]; rats, intragastric 1 mg/kg): 37.1 ± 20.8%
Aggregation rate (%) ([1]; rats, intragastric 2 mg/kg): 22.3 ± 17.2 %
Aggregation rate (%) ([1]; rats, intragastric 4 mg/kg): 13.0 ± 11.3 %
Aggregation rate (%) ([1]; rats, intragastric 8 mg/kg): 0.0 ± 0.0 %

SMILES: COC(=O)[C@H](c1ccccc1Cl)N1CCc2sc(OC(C)=O)cc2C1.Cl [Compound D-9, Methyl (S,E)-2-(2-chlorophenyl)-2-(2-acetoxy-6,7-dihydrothieno[3,2-c]pyridin-5(4H)-yl)-acetate Hydrochloride, reference compound]
Chromatographic purity % ([2]; 0 day, 0point): 99.802%
Individual maximum impurity % ([2]; 0 day, 0point): 0.062%
Chromatographic purity % ([2]; 5 days, High humidity RH92.5%): 29.362%
Individual maximum impurity % ([2]; 5 days, High humidity RH92.5%): 20.760%
Chromatographic purity % [2, 7]: 92.725%
Individual maximum impurity % [2, 7]: 2.897%
Chromatographic purity % ([2]; 5 days, Light 4500 ± 500 LX): 97.637%
Individual maximum impurity % ([2]; 5 days, Light 4500 ± 500 LX): 0.946%
Chromatographic purity % ([2]; 10 days, High humidity RH92.5%): 3.827%
Individual maximum impurity % ([2]; 10 days, High humidity RH92.5%): 26.942%
Chromatographic purity % [2, 8]: 84.395%
Individual maximum impurity % [2, 8]: 5.254%
Chromatographic purity % ([2]; 10 days, Light 4500 ± 500 LX): 96.472%
Individual maximum impurity % ([2]; 10 days, Light 4500 ± 500 LX): 1.621%
Individual maximum impurity % ([2]; 30 days, High humidity RH92.5%): 52.717%
Chromatographic purity % [2, 9]: 39.866%
Individual maximum impurity % [2, 9]: 9.740%
Chromatographic purity % ([2]; 30 days, Light 4500 ± 500 LX): 91.198%
Individual maximum impurity % ([2]; 30 days, Light 4500 ± 500 LX): 3.728%

Chromatographic purity % ([2]; 0 day, 0point): 99.118%
Individual maximum impurity % ([2]; 0 day, 0point): 0.135%
Chromatographic purity % ([2]; 5 days, High humidity RH92.5%): 99.253%
Individual maximum impurity % ([2]; 5 days, High humidity RH92.5%): 0.127%
Chromatographic purity % [2, 7]: 96.953%
Individual maximum impurity % [2, 7]: 0.510%
Chromatographic purity % ([2]; 5 days, Light 4500 ± 500 LX): 91.635%
Individual maximum impurity % ([2]; 5 days, Light 4500 ± 500 LX): 1.094%
Chromatographic purity % ([2]; 10 days, High humidity RH92.5%): 99.202%
Individual maximum impurity % ([2]; 10 days, High humidity RH92.5%): 0.104%
Chromatographic purity % [2, 8]: 93.371%
Individual maximum impurity % [2, 8]: 1.224%
Chromatographic purity % ([2]; 10 days, Light 4500 ± 500 LX): 80.960%
Individual maximum impurity % ([2]; 10 days, Light 4500 ± 500 LX): 2.821%
Chromatographic purity % ([2]; 30 days, High humidity RH92.5%): 98.933%
Individual maximum impurity % ([2]; 30 days, High humidity RH92.5%): 0.172%
Chromatographic purity % [2, 9]: 80.070%
Individual maximum impurity % [2, 9]: 5.418%
Chromatographic purity % ([2]; 30 days, Light 4500 ± 500 LX): 59.908%
Individual maximum impurity % ([2]; 30 days, Light 4500 ± 500 LX): 8.206%
SMILES: COC(=O)[C@H](c1ccccc1Cl)N1CCc2sc(OC(=O)/C=C/c3ccc(OC)cc3)cc2C1 [Compound D-8, Methyl (S,E)-2-(2-chlorophenyl)-2-(2-(3-(4-methoxyphenyl)acryloyloxy)-6,7-dihydrothieno[3,2-c]pyridin-5(4H)-yl)-acetate, reference compound]

Concentration of incubated compound in human plasma ([3]; 0 min): 0.965 µM
Incubated compound in human plasma, % ([3]; 0 min): 98.1%
Concentration of incubated compound in human plasma ([3]; 5 min): 1.045 µM
Incubated compound in human plasma, % ([3]; 5 min): 106%
Concentration of incubated compound in human plasma ([3]; 10 min): 1.000 µM
Incubated compound in human plasma, % ([3]; 10 min): 102%
Concentration of incubated compound in human plasma ([3]; 20 min): 0.987 µM
Incubated compound in human plasma, % ([3]; 20 min): 100%
Concentration of incubated compound in human plasma ([3]; 30 min): 1.025 µM
Incubated compound in human plasma, % ([3]; 30 min): 104%
Concentration of incubated compound in human plasma ([3]; 45 min): 0.995 µM
Incubated compound in human plasma, % ([3]; 45 min): 101%
Concentration of incubated compound in human plasma ([3]; 60 min): 0.981 µM
Incubated compound in human plasma, % ([3]; 60 min): 100%
Concentration of incubated compound in human plasma ([3]; 90 min): 0.924 µM
Incubated compound in human plasma, % ([3]; 90 min): 94.0%
Concentration of incubated compound in human plasma ([3]; 120 min): 0.944 µM
Incubated compound in human plasma, % ([3]; 120 min): 96.0%
Stability in human plasma ([3]; plasma, 2 h): substantially stable
SMILES: COC(=O)[C@H](c1ccccc1Cl)N1CCc2sccc2C1 [Clopidogrel, reference compound]
ED50 [1, 6]: 4.13 mg/kg
Inhibition rate (%) ([1]; rats, intragastric 2.5 mg/kg): 26.5%
Inhibition rate (%) ([1]; rats, intragastric 5 mg/kg): 59.7%
Inhibition rate (%) ([1]; rats, intragastric 10 mg/kg): 90.5%
Aggregation rate (%) ([1]; rats, intragastric 2.5 mg/kg): 44.1 ± 13.5%
Aggregation rate (%) ([1]; rats, intragastric 5 mg/kg): 24.2 ± 10.6 %
Aggregation rate (%) ([1]; rats, intragastric 10 mg/kg): 5.7 ± 7.5 %
ED50 [4]: 11.8 mg/kg
Inhibition rate (%) ([4]; intragastric 3 mg/kg): 24.2%
Inhibition rate (%) ([4]; intragastric 10 mg/kg): 41.5%
Inhibition rate (%) ([4]; intragastric 30 mg/kg): 72.6%

SMILES: C=C/C=C/C(=O)Oc1cc2c(s1)CCN([C@H](C(=O)OC)c1ccccc1Cl)C2 [Compound I-3, Methyl (S,E)-2-(2-chlorophenyl)-2-(2-(2,4-pentadienoyloxy)-6,7-dihydrothieno[3,2-c]pyridin-5(4H)-yl)-acetate]
ED50 [1, 6]: 1.04 mg/kg
Inhibition rate (%) ([1]; rats, intragastric 1 mg/kg): 44.0%
Inhibition rate (%) ([1]; rats, intragastric 2 mg/kg): 97.6%
Inhibition rate (%) ([1]; rats, intragastric 4 mg/kg): 100%
Aggregation rate (%) ([1]; rats, intragastric 1 mg/kg): 33.6 ± 31.3%
Aggregation rate (%) ([1]; rats, intragastric 2 mg/kg): 1.44 ± 2.5 %
Aggregation rate (%) ([1]; rats, intragastric 4 mg/kg): 0.0 ± 0.0 %

SMILES: CCC/C=C/C(=O)Oc1cc2c(s1)CCN([C@H](C(=O)OC)c1ccccc1Cl)C2 [Compound I-5, Methyl (S,E)-2-(2-chlorophenyl)-2-(2-(2-hexenoyloxy)-6,7-dihydrothieno[3,2-c]pyridin-5(4H)-yl)-acetate]
ED50 ([1]; Platelet, po): 1.03 mg/kg
Inhibition rate (%) ([1]; rats, intragastric 0.5 mg/kg): 19.5%
Inhibition rate (%) ([1]; rats, intragastric 1 mg/kg): 52.8%
Inhibition rate (%) ([1]; rats, intragastric 2 mg/kg): 74.3%
Aggregation rate (%) ([1]; rats, intragastric 0.5 mg/kg): 48.4 ± 17.3%
Aggregation rate (%) ([1]; rats, intragastric 1 mg/kg): 28.3 ± 11.7 %
Aggregation rate (%) ([1]; rats, intragastric 2 mg/kg): 15.4 ± 14.7 %

SMILES: CC(=O)Oc1cc2c(s1)CCN(C(C(=O)C1CC1)c1ccccc1F)C2 (centres unmarked) [Prasugrel, reference compound]
ED50 [1, 6]: 0.612 mg/kg
Inhibition rate (%) ([1]; rats, intragastric 0.25 mg/kg): 13.3%
Inhibition rate (%) ([1]; rats, intragastric 0.5 mg/kg): 37.8%
Inhibition rate (%) ([1]; rats, intragastric 1 mg/kg): 75.0%
Aggregation rate (%) ([1]; rats, intragastric 0.25 mg/kg): 52.1 ± 6.6%
Aggregation rate (%) ([1]; rats, intragastric 0.5 mg/kg): 37.4 ± 12.3 %
Aggregation rate (%) ([1]; rats, intragastric 1 mg/kg): 15.0 ± 10.2 %
ED50 [4]: 1.57 mg/kg
Inhibition rate (%) ([4]; intragastric 0.1 mg/kg): 6.0%
Inhibition rate (%) ([4]; intragastric 0.3 mg/kg): 9.0%
Inhibition rate (%) ([4]; intragastric 1 mg/kg): 35.7%
Inhibition rate (%) ([4]; intragastric 3 mg/kg): 70.2%
ED200 (dose that doubled the bleeding time) [5]: 0.513 mg/kg
